Experimental data as given in patent publication US9320760B2, “Compositions and methods of use of compounds to increase cancer patient survival time” (BioNumerik Pharmaceuticals, Inc., priority 2008, dated 2016).
Where two headings read alike, the source gives them in different places.

How the values were obtained:
[1] = target: T1, glutathione reductase (GR) (Homo sapiens, UniProt P00390); conditions: cited from earlier work
T1 sequence (P00390 44-522): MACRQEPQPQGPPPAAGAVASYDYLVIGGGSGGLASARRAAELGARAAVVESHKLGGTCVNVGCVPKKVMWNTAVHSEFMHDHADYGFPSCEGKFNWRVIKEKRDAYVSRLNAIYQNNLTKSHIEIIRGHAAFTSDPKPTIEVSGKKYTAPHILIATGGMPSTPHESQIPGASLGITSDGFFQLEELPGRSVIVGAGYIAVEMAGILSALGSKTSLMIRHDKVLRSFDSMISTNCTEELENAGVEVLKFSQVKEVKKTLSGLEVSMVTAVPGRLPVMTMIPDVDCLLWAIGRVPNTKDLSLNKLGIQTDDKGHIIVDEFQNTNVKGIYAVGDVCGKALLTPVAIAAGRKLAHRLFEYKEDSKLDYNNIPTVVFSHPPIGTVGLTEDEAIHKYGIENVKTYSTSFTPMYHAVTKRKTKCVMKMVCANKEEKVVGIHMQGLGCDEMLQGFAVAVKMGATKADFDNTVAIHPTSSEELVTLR

[2] = system: mammalian thioredoxin reductase (TXR); conditions: cited from earlier work
[3] = target: T1, glutathione reductase (GR); assay: NADPH oxidation, glutathione reductase (GR) alone; assay type: biochemical; conditions: for NADPH Oxidation, GR: Disulfide 0.5 mM, n = 6
Description: (§1) The Formula (I) compound was utilized at a concentration of 0.5 mM.

Thioredoxin Reductase = target: T2, Thioredoxin Reductase (Bos taurus, UniProt O62768); assay: NADPH oxidation at 340 nm, thioredoxin reductase only; assay type: biochemical, bovine; conditions: Disulfide 0.5 mM; minimum of triplicate assays
T2 sequence (O62768 1-499): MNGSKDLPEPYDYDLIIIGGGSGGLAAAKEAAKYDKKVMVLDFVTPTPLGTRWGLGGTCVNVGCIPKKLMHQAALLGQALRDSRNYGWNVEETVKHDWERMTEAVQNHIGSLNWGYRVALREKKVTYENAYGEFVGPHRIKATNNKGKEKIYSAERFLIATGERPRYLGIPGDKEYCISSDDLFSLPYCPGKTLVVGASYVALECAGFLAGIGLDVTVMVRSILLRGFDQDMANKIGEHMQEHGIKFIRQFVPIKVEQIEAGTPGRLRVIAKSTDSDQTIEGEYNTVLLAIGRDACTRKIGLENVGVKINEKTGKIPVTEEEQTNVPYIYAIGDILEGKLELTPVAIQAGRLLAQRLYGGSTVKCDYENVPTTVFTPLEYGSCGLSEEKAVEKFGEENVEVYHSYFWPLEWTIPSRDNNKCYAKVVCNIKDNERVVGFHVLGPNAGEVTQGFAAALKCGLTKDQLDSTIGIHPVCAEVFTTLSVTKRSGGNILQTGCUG
Description: (§2) Biochemistry 21:6628-6633 (1982).
(§3) Data was then collected and plotted in Microsoft Excel. Error calculations, and graphical representations were performed in Microsoft Excel and Kaleidograph (ver. 3.5). Nonlinear data was graphically rendered using Kaleidograph. ANOVA and other statistical analyses were performed using SAS (ver. 8.2). Unless otherwise noted, significance level was set at 0.05, and error bars represent actual experimental standard deviation.
(§4) It should be noted that for the purposes of FIG. 17 only, thioredoxin is labeled TXR and thioredoxin reductase is labeled TRR.

[4] = target: T3, GR + GRX + GSH (coupled glutaredoxin/glutathione/glutathione reductase system) (Homo sapiens, UniProt P35754); assay: NADPH oxidation, coupled GRX/GSH/GR system; assay type: biochemical; conditions: Disulfide 0.5 mM; n = 6
T3 sequence (P35754 1-106): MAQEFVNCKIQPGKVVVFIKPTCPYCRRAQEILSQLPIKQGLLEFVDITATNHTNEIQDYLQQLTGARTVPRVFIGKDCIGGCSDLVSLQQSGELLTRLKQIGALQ
Description: as §1

GR + GSH = target: T4, GR + GSH (Homo sapiens, UniProt P00390); assay: NADPH oxidation, GR + GSH; assay type: biochemical; conditions: Disulfide 0.5 mM; n = 6
T4 sequence (P00390 44-522): T1 sequence (P00390 44-522)
Description: as §1

[5] = target: T5, Thioredoxin Reductase + Thioredoxin (Bos taurus, UniProt O97680); assay: NADPH oxidation at 340 nm, coupled thioredoxin (TX)/thioredoxin reductase (TXR)/NADPH system; assay type: biochemical, bovine; conditions: Disulfide 0.5 mM; minimum of triplicate assays
T5 sequence (O97680 1-105): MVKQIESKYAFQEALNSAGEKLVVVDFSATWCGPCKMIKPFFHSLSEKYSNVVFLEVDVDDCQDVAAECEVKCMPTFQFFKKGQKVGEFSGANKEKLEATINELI
Description: as §2, §3, §4
Table 4, below, illustrates that various Formula (I) compounds (i.e., disulfide-containing compounds) of the present invention can serve as alternate substrate inhibitors for the coupled thioredoxin (TX)/thioredoxin reductase (TXR)/NADPH system as measured by the oxidation of NADPH. In Table 4, the Formula (I) compounds were utilized at a concentration of 0.5 mM.

[6] = system: cellular ribonucleotide reductase in human cancer cells; conditions: literature; cited from earlier work
[7] = system: non-small cell lung carcinoma (NSCLC) cell lines; assay: cytotoxicity study in combination with chemotherapeutic agents, NSCLC cell lines; assay type: cell-based, human
whole cells = assay: whole cell mediated disulfide reduction (α-lipoic acid, hydroxyethyldisulfide); assay type: cell-based; conditions: mesna in combination with cisplatin
brain cancer cells = assay: cytotoxicity study in combination with oxaliplatin, brain cancer cells; assay type: cell-based, human; conditions: oxaliplatin and mesna, observable but not statistically significant
[8] = system: ovarian cancer cell lines; assay: cytotoxicity study in combination with oxaliplatin, ovarian cancer cell lines; assay type: cell-based, human; conditions: mesna 100 μM in combination with oxaliplatin vs oxaliplatin alone controls
[9] = literature studies, result in words

## O=C(O)C(=O)O.[NH-][C@@H]1CCCC[C@H]1[NH-].[Pt+2] [oxaliplatin]
[1]
  inhibition of GR: not GR
[2]
  inhibition of TXR: irreversibly inhibited

## COc1cccc2c1C(=O)c1c(O)c3c(c(O)c1C2=O)C[C@@](O)(C(C)=O)C[C@@H]3O[C@H]1C[C@H](N)[C@H](O)[C@H](C)O1 [daunorubicin]
[2]
  inhibition of TXR: not inhibitors

## NC(CCC(=O)NC(CSSCCS(=O)(=O)O)C(=O)O)C(=O)O (stereo not shown) [BNP7774]
[3]
  NADPH Oxidation, GR: 0.04 ± 0.12 nmol/min/mL
Thioredoxin Reductase
  NADPH Oxidation, Thioredoxin Reductase only: 0.3 ± 0.02 nmol/min/mL
[4]
  NADPH Oxidation, GR + GRX + GSH: 37.0 ± 2.1 nmol/min/mL
GR + GSH
  NADPH Oxidation, GR + GSH: 2.4 ± 0.7 nmol/min/mL
[5]
  NADPH Oxidation, Thioredoxin Reductase + Thioredoxin: 9.6 ± 0.2 nmol/min/mL

## N[C@@H](CSSCCS(=O)(=O)O)C(=O)NCC(=O)O [BNP7776]
[3]
  NADPH Oxidation, GR: 0.0 ± 0.7 nmol/min/mL
Thioredoxin Reductase
  NADPH Oxidation, Thioredoxin Reductase only: 0.2 ± .04 nmol/min/mL
[4]
  NADPH Oxidation, GR + GRX + GSH: 22.0 ± 0.5 nmol/min/mL
GR + GSH
  NADPH Oxidation, GR + GSH: 4.1 ± 1.0 nmol/min/mL
[5]
  NADPH Oxidation, Thioredoxin Reductase + Thioredoxin: 15.8 ± 0.3 nmol/min/mL

## N[C@@H](CCC(=O)N[C@@H](CSSCCS(=O)(=O)O)C(=O)NCC(=O)O)C(=O)O [BNP7772]
[3]
  NADPH Oxidation, GR: 8.0 ± 0.6 nmol/min/mL
[3]; result in words
  substrate / alternative substrate inhibitor for glutathione reductase: functions as an alternative substrate inhibitor
Thioredoxin Reductase
  NADPH Oxidation, Thioredoxin Reductase only: 0.3 ± 0.02 nmol/min/mL
[4]
  NADPH Oxidation, GR + GRX + GSH: 71.0 ± 7.9 nmol/min/mL
GR + GSH
  NADPH Oxidation, GR + GSH: 11.3 ± 0.8 nmol/min/mL
[5]
  NADPH Oxidation, Thioredoxin Reductase + Thioredoxin: 14.1 ± 0.1 nmol/min/mL

## O=C(O)CCCc1ccc(N(CCCl)CCCl)cc1 [chlorambucil]
[1]; [9]
  inhibition of GR: not GR
[2]; [9]
  inhibition of TXR: irreversibly inhibited

## N.N.O=C([O-])C1(C(=O)[O-])CCC1.[Pt+2] [carboplatin]
[1]; [9]
  inhibition of GR: could not inhibit
[2]; [9]
  inhibition of TXR: could not inhibit

## O=P1(N(CCCl)CCCl)NCCCO1 (stereo not shown) [cyclophosphamide]
[1]; [9]
  inhibition of GR: not GR
[2]; [9]
  inhibition of TXR: irreversibly inhibited

## CS(=O)(=O)OCCCCOS(C)(=O)=O [busulfan]
[1]; [9]
  inhibition of GR: not GR
[2]; [9]
  inhibition of TXR: irreversibly inhibited

## O=P1(NCCCl)OCCCN1CCCl (stereo not shown) [ifosfamide]
[2]; [9]
  inhibition of TXR: inhibited

## O=NN(CCCl)C(=O)NCCCl [carmustine]
[1]; [9]
  inhibition of GR: can inhibit
[2]; [9]
  inhibition of TXR: can inhibit

## N[C@@H](Cc1ccc(N(CCCl)CCCl)cc1)C(=O)O [melphalan]
[1]; [9]
  inhibition of GR: not GR
[2]; [9]
  inhibition of TXR: irreversibly inhibited

## CC1=C(/C=C/C(C)=C/C=C/C(C)=C\C(=O)O)C(C)(C)CCC1 [13-cis-retinoic acid]
[2]; [9]
  inhibition of TXR: irreversible inhibition

## NC(CCSSCCS(=O)(=O)O)C(=O)O (stereo not shown) [BNP7768]
[3]
  NADPH Oxidation, GR: 0.16 ± 0.96 nmol/min/mL
Thioredoxin Reductase
  NADPH Oxidation, Thioredoxin Reductase only: 0.0 ± 0.03 nmol/min/mL
[4]
  NADPH Oxidation, GR + GRX + GSH: 10.7 ± 0.7 nmol/min/mL
GR + GSH
  NADPH Oxidation, GR + GSH: 0.88 ± 0.2 nmol/min/mL
[5]
  NADPH Oxidation, Thioredoxin Reductase + Thioredoxin: 8.6 ± 0.06 nmol/min/mL

## COc1cccc2c1C(=O)c1c(O)c3c(c(O)c1C2=O)C[C@@](O)(C(=O)CO)C[C@@H]3O[C@H]1C[C@H](N)[C@H](O)[C@H](C)O1 [doxorubicin]
[6]
  inhibition of the TR/TXR system resulting in inhibition of cellular ribonucleotide reductase activity: concentration-dependent inhibition
[2]; [9]
  inhibition of TXR: not inhibitors

## CCOC(=O)NC1=C(N2CC2)C(=O)C(NC(=O)OCC)=C(N2CC2)C1=O [Diaziquone]
[6]
  inhibition of the TR/TXR system resulting in inhibition of cellular ribonucleotide reductase activity: concentration-dependent inhibition

## NC(CSSCCS(=O)(=O)O)C(=O)O (stereo not shown) [BNP7766]
[3]
  NADPH Oxidation, GR: 0.0 ± 0.01 nmol/min/mL
Thioredoxin Reductase
  NADPH Oxidation, Thioredoxin Reductase only: 0.2 ± 0.03 nmol/min/mL
[4]
  NADPH Oxidation, GR + GRX + GSH: 28.3 ± 2.0 nmol/min/mL
GR + GSH
  NADPH Oxidation, GR + GSH: 4.1 ± 1.3 nmol/min/mL
[5]
  NADPH Oxidation, Thioredoxin Reductase + Thioredoxin: 14.4 ± 0.2 nmol/min/mL

## N.N.[Cl][Pt][Cl] [cisplatin, cis-diamminedichloroplatinum]
[1]; [9]
  inhibition of GR: not GR
[2]; [9]
  inhibition of TXR: irreversibly inhibited

## O=S(=O)([O-])CCS.[Na+] [mesna, 2-mercapto ethane sulfonate sodium]
[7]; mesna 100 μM in combination with oxaliplatin vs oxaliplatin alone controls
  cytotoxic effect of oxaliplatin: markedly enhanced
[7]; mesna 100 μM in combination with paclitaxel vs paclitaxel alone controls
  cytotoxic effect of paclitaxel: enhanced
Whole cells
  reduction of α-lipoic acid (TX/TXR substrate) or hydroxyethyldisulfide (GRX substrate) by whole cells: enhanced
Brain cancer cells
  oxaliplatin cytotoxicity: lesser increase
[8]
  cytotoxic effect of oxaliplatin: markedly enhanced

## N.N.[Cl][Pt+2][Cl] [transplatin]
[1]
  inhibition of GR: not GR
[2]
  inhibition of TXR: irreversibly inhibited
